According to article PMC6151709, “Immobilization of Moniliella spathulata R25L270 Lipase on Ionic, Hydrophobic and Covalent Supports: Functional Properties and Hydrolysis of Sardine Oil” (Molecules : A Journal of Synthetic Chemistry and Natural …, 2017):

System: T1, M. spathulata R25L270 lipase
T1 construct: native secreted enzyme; crude culture supernatant (Macauba cake medium), not purified here; free enzyme
Experiment: spectrophotometric release of p-nitrophenol at […] nm
Type: biochemical, Moniliella spathulata
Conditions: free enzyme, crude culture supernatant; pH 8.0, 37 °C; pNPP 0.1-1 mM; Triton X-100, gum arabic, 2-propanol in the substrate solution; read-out: Michaelis Constant KM

Km: 1.92 mM
Compound: CCCCCCCCCCCCCCCC(=O)Oc1ccc([N+](=O)[O-])cc1 [p-nitrophenylpalmitate]
